Results on two compounds are retold here after patent publication US20150065416A1, “NOVEL DRUG COMBINATION” (FAB PHARMA SAS, priority 2013, published 2015).

The subject of assay [1] is A. baumannii RCH-69. The assay is described as follows: Mouse model of A. baumannii pneumonia, Study 3: survival. In kind it is in vivo, Acinetobacter baumannii. The note with it: neutropenic C3H/HeN mice, q 8 h I.P. 3 days, compound (I) 200 mg/kg, meropenem 50 mg/kg, colistin 125000 Ul/kg. The protocol: The bacterial inoculum was prepared in order to obtain a suspension containing 10^8 CFU/mL of Acinetobacter baumannii in saline.
Experimentations were performed with six-week old female C3H/HeN mice (18-20 g, Breeding Centre JANVIER (Ile saint Genest Mayenne 53)) because of their particular susceptibility to Acinetobacter baumannii and the reproducibility of the results (inbreeding in the breed). Each mouse was individually marked and housed in cages containing five animals/cage under ventilated and controlled (temperature and humidity) atmosphere.
The mice were rendered transiently neutropenic by 2 intra-peritoneal (IP) injections of 150 μL of cyclophosphamide (Endoxan® 150 mg/kg) 4 (D-4) and 3 (D-3) days before the Acinetobacter baumannii inoculation (Day 0). This transient immunosuppression was sufficient to facilitate the development of the A. baumannii pneumonia while allowing the recovery of the neutrophil influx 2 (Day 2) days after inoculation in order to avoid or limit a systemic bacterial dissemination.
Mice were anesthetized by a mixture of oxygen and isoflurane. The bacterial inoculation was performed on Day 0 by intra-tracheal installation using an endotracheal catheter (50 μl of the suspension, thus 5.106 CFU). The positioning of the catheter in the trachea (instead of in the oesophagus) was checked by a “ring test”. The bacterial count in lungs was checked for all study groups by sacrificing one mouse immediately after inoculation.
Survival observations were assessed twice daily, up to 4 days post infection. The survival rates were compared with the Chi-square test or the Fisher exact test as appropriate. The survival curves were compared by the Kaplan-Meier method.
The aim of this experiment was to assess the survival rate of transiently neutropenic female C3H/HeN mice administered, 3 hours post-inoculation of A. baumannii RCH-69 via intra-tracheal route, with a compound (I) via intra-peritoneal route at 200 mg/kg 3 times daily (every 8 hours) for 3 days alone and in combination with meropenem at 50 mg/kg 3 times daily (every 8 hours) for 3 days or with colistin at 125000 UI/kg 3 times daily (every 8 hours) for 3 days. 85 mice were allocated into 6 groups as follows.
Six vials of 8 mL each containing 94.2 mg/mL of compound (I) and 47.1 mg/mL of PVP 12 PF (Kollidon 12 PF) were prepared and stored between +2° C. and +8° C. Following storage, each vial was homogenized by manual shaking and diluted by 2-fold in 13.72 mg/mL NaCl aqueous solution in order to obtain a 47.1 mg of compound (I)/mL isotonic suspension. In Groups 2, 4 and 5, mice were administered with 100 μL of the 47.1 mg/mL compound (I) suspension.

Assay [2] relates to A. baumannii SAN-94040. The experiment in a line: Additional mouse model of A. baumannii pneumonia (Example 7): survival. The format is in vivo, Acinetobacter baumannii. The protocol:
The bacterial inoculum was prepared in order to obtain a suspension containing 10^8 CFU/mL of Acinetobacter baumannii in saline, unless indicated otherwise.
Experimentations were performed with six-week old female C3H/HeN mice (18-20 g, Harlan Laboratories) because of their particular susceptibility to Acinetobacter baumannii. Each mouse was individually marked and housed in cages containing five animals/cage under ventilated and controlled (temperature and humidity) atmosphere.
The mice were rendered transiently neutropenic by 2 intra-peritoneal (IP) injections of 150 μL of cyclophosphamide (150 mg/kg) 4 (D-4) and 3 (D-3) days before the Acinetobacter baumannii inoculation (Day 0).
Mice were infected with 50 μL the prepared bacterial suspension (inoculums depending on experiment) via intra-tracheal inoculation of mouse. In the study, three animals (Group 1) were sacrificed after inoculation to determine bacterial burden in lungs at the time of infection. Lungs were aseptically removed, weighed and homogenized in 1 mL of 0.9% NaCl. Homogenates were serially diluted and plated on TSA agar. Plates were incubated overnight at 37° C. in 5% CO2. Following incubation, colonies were counted for bacterial growth.
Animal survival was assessed every day for 7 days. Survival data were tabulated and a Probit analysis performed to determine the 50% protective dose (PD50) for each group.
The aim of this experiment was to assess the survival rate of transiently neutropenic female C3H/HeN mice administered, 3 hours post-inoculation of A. baumannii SAN-94040 via intra-tracheal route, with compound (I) via intra-peritoneal route at 200 mg/kg 3 times daily (every 8 hours) for 1 day alone and in combination with meropenem at 30 mg/kg 3 times daily (every 8 hours) for 1 day.

The test system of assay [3] is Staphylococcus aureus (MSSA, MRSA, VISA, VRSA). The note with it: VISA and VRSA strains; cited from earlier work.
The test system of assay [4] is MSSA, MRSA and VISA infections. The note with it: murine model; cited from earlier work.
Assay [5] deals with S. aureus. The note with it: healthy human volunteers, Phase I study; cited from earlier work.
[6] abbreviates: 24 h after RCH strain infection.
The mark [7] stands for this setting: 48 h after RCH strain infection.
[8] abbreviates: 72 h after RCH strain infection.
Setting [9] is: 96 h after RCH strain infection.
Where [10] appears, read: Example 7, 24 h after SAN-94040 infection, compound (I) 200 mg/kg, meropenem 30 mg/kg, colistin 125000 UI/kg Q8h I.P. for 1 day.
[11] abbreviates: Example 7, 24 h after infection, doses as E246.
Where [12] appears, read: Example 7, 48 h after infection, doses as E246.
[13] abbreviates: Example 7, 72 h after infection, doses as E246.
[14] abbreviates: Example 7, 96 h after infection, doses as E246.

As to `C[C@@H](O)[C@H]1C(=O)N2C(C(=O)O)=C(S[C@@H]3CN[C@H](C(=O)N(C)C)C3)[C@H](C)[C@H]12` [meropenem], the No. of survivors in assay [1] (0 h after RCH strain infection) is given as 14; in assay [1] (setting [6]), 14; in assay [1] (setting [7]), 0; in assay [1] (setting [8]) it was 0; in assay [1] (setting [9]) it was 0; in assay [2] (setting [10]), 10. Also, the No. of survivors in assay [2] (setting [12]), in assay [2] (setting [13]) and in assay [2] (setting [14]) was 10 each time. Also, the “survivors (%)” value in assay [1] (0 h after RCH strain infection), in assay [1] (setting [6]), in assay [2] (setting [11]), in assay [2] (setting [12]), in assay [2] (setting [13]) and in assay [2] (setting [14]) was 100% throughout.
Regarding `CCc1cc(O)c(Oc2ccc(C(N)=O)cc2F)cc1F` [compound (I), 4-(4-ethyl-5-fluoro-2-hydroxyphenoxy)-3-fluorobenzamide], the No. of survivors in assay [1] (0 h after RCH strain infection) was 13; in assay [1] (setting [6]), 5; in assay [1] (setting [7]) it was 0; in assay [1] (setting [8]), 0; in assay [1] (setting [9]), 0; in assay [2] (setting [10]), 10. Besides, the No. of survivors is 8 in assay [2] (setting [12]), 6 in assay [2] (setting [13]) and 6 in assay [2] (setting [14]). Further, the “survivors (%)” value in assay [1] (0 h after RCH strain infection) is on record as 100%; in assay [1] (setting [6]), 38%; in assay [2] (setting [11]), 100%; in assay [2] (setting [12]), 80%; in assay [2] (setting [13]), 60%; in assay [2] (setting [14]), 60%. Moreover, the survival rate in assay [2] (Example 7, text, time not stated) was 60%. In addition, the in vitro activity entry in assay [3] is on record as “highly active”. The in vivo activity result in assay [4] is on record as “active in vivo”. Also, in assay [5], the ex vivo activity result is reported as “ex vivo bactericidal activity”.
